Results taken from patent publication US20140294724A1, “COMPOSITIONS AND METHODS FOR TREATMENT OF PROTEINOPATHIES” (Intellect Neurosciences, Inc., priority 2011, published 2014).
Where “and” joins values, the source holds several entries; their conditions need not be identical. Equal values may be shown once.

Key:
β-Amyloid 1-40 peptide = biological target: T1, β-Amyloid 1-40 peptide (Homo sapiens, UniProt P05067); experiment: β-Amyloid aggregation, Thioflavin T fluorescence assay; type: biochemical; settings: 24 hours; for reduction of fibrillogenesis: with ApoE4 added (about 1/80 of test compound), equimolar with Aβ; for potency in reducing fibrillogenesis compared with melatonin: with ApoE4 added
T1 construct: 60 μM β-Amyloid 1-40
Description: In a NUNC PP 96-well plate 100 μL of MilliQ dH2O was added to the outer wells surrounding the test wells in order to minimize evaporation. Samples in a final volume of 100 μl/well were added to the 96-well plate as follows:
Aggregation was measured at 0 and 24 hours incubation time.
5 μL was obtained from each test sample after incubation and added to 2 mL of a glycine/NaOH buffer (50 mM, pH 9.2) containing 3 μM thioflavin T. Fluorescence intensities were measured at an excitation wavelength of 450 nm and an emission wavelength of 485 nm in a Envision fluorescence spectrophotometer. A time scan of fluorescence intensity was performed, and three measurements were taken after the decay reached a plateau at 200, 220, and 240 s and averaged after subtracting the background fluorescence of 3 μM thioflavin T in the blank buffers. […] All measurements were taken in triplicate. Siliconized polypropylene microcentrifuge tubes (USA Scientific) were used for these experiments. Solutions of recombinant apolipoproteins were immediately lyophilized and, prior to being used, resuspended in 0.1 M tris-phosphate-HCl buffer (pH 7.4). […] Solutions of Aβ were prepared by dissolving 2.2 mg of the peptide in 1 mL of 50 mM buffer at pH 9.6. Aliquots (50 uL) of this solution were lyophilized and stored at −80° C. until they were needed for the experiments. Working stock solutions of the peptide (concentration of 500 uM) were prepared in HPLC-grade water immediately prior to the experiments. The absence of aggregates and amyloid fibrils in these solutions was verified by spectrofluorometry.

[1] = Oxygen Radical Absorbance Capacity assay (ORAC antioxidant test); type: biochemical; settings: for Calculated Trolox® equivalents: ratio of slope of sample to slope of Trolox® (Eq. 3)
Description: Sodium Fluorescein was purchased from Invitrogen. 2,2′-Azobis(2-amidinopropane) dihydrochloride (AAPH), 6-hydroxy-2,5,7,8-tetramethylchroman-2-carboxylic acid (Trolox®), gallic acid, Epigallocatechin gallate (EGCG), epigallocatechin (EGC), and quercetin dihydrate were purchased from Sigma-Aldrich (St. Louis, Mo.). Black-sided, special optics clear bottom plates (part #3615) were obtained from Corning.
The ORAC assay depends on the free radical damage to a fluorescent probe, such as fluorescein, to result in a downward change of fluorescent intensity. The assumption is that the degree of change is indicative of the amount of radical damage. […] This inhibition is observed as a preservation of the fluorescent signal. Reactions containing antioxidants and or blanks are run in parallel using equivalent amounts of a molecule capable of generating super reactive oxygen species (ROS) and fluorescent probe. Because the reaction is driven to completion, one can quantitate the protection by calculating the area under the curve (AUC) from the experimental sample. After subtracting the AUC from the blank, the resultant difference would be the protection conferred by the antioxidant compound. […] The ORAC assay is unique in that because the assay is driven to completion the AUC calculation combines both the inhibition time as well inhibition percentage of free radical damage by the antioxidant into a single quantity.
Reactive oxygen species generators were added to parallel reactions containing equal amounts of a fluorescent probe. Reactions contained either a buffer blank or antioxidant samples and standards. The antioxidant capacity of a sample is the net difference between the area under the curve (AUC) of the sample and that of the blank. The exterior wells were not used for experimental determinations. 200 μL of MilliQ dH2O was added to the outer wells surrounding the test wells in order to minimize evaporation. 150 μL sodium fluorescein was added to experimental wells. […] The plate was allowed to equilibrate by incubating for 30 min in the Victor2^V Microplate Reader (Perkin Elmer, Waltham, Mass.) at 37° C. Reactions were initiated by the addition 25 μL of AAPH solution (free radical initiator) for a final reaction volume of 200 μl. The fluorescence was monitored kinetically in Victor2V with temperature control reader for at least 80 min with data taken every minute. Fast orbital shaking (0.5 mm) for 10 sec was performed prior to each reading. The temperature was set to 37° C. at all time and the reagents were treated as light sensitive.
AUC=(R1/R1)+(R2/R1)+(R3/R1)+ . . . +(Rn/R1) (Eq. 1)
Where R1 is the fluorescence reading at the initiation of the reaction and Rn is the last measurement.
Net AUC=AUC(sample)−AUC(blank) (Eq. 2)
The resultant standard curve was then interpolated to determine of antioxidant capacity of the samples and reported as Trolox® equivalence. To determine Trolox® equivalents of each sample range the ratio of the slope (m) of the linear regression analysis of the sample to the slope of the linear regression of Trolox® was used:
TE(range of concentrations)=m(sample)/m(Trolox®) (Eq. 3)

[2] = tested on: moderate-stage AD patients; settings: 2000 IU per day; cited from earlier work
patients with AD = settings: 250 mg dose, cited from earlier work

T1 sequence (P05067 672-711): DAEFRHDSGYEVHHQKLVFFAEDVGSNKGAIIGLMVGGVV

| Structure (SMILES) | reduction of fibrillogenesis (β-Amyloid 1-40 peptide) | potency in reducing fibrillogenesis compared with melatonin (β-Amyloid 1-40 peptide) | AUC ([1]; Concentration 0.390625) | Net AUC ([1]; Concentration 0.390625) | AUC ([1]; Concentration 0.78125) | Net AUC ([1]; Concentration 0.78125) | AUC ([1]; Concentration 1.5625) | Net AUC ([1]; Concentration 1.5625) | AUC ([1]; Concentration 3.125) | Net AUC ([1]; Concentration 3.125) | AUC ([1]; Concentration 6.25) | Net AUC ([1]; Concentration 6.25) | AUC ([1]; Concentration 12.5) | Net AUC ([1]; Concentration 12.5) | AUC ([1]; Concentration 25) | Net AUC ([1]; Concentration 25) | AUC ([1]; Concentration 50) | Net AUC ([1]; Concentration 50) | AUC ([1]; Concentration 100) | Net AUC ([1]; Concentration 100) | other results |
| --- | --- | --- | --- | --- | --- | --- | --- | --- | --- | --- | --- | --- | --- | --- | --- | --- | --- | --- | --- | --- | --- |
| COc1ccc2[nH]cc(CCNC(=O)CCOCCOCCOCCOCCNC(=O)CCN3C(=O)CC(SC[C@H](N)C(=O)O)C3=O)c2c1 (stereo partly drawn) [Example 2, (2R)-2-amino-3-((1-(1-(5-methoxy-1H-indol-3-yl)-4,20-dioxo-7,10,13,16-tetraoxa-3,19-diazadocosan-22-yl)-2,5-dioxopyrrolidin-3-yl)thio)propanoic acid] | 75% | about 2 fold | 13.97 | 7.75 | 20.49 | 14.27 | 28.06 | 21.84 | 45.62 | 39.39 | 71.79 | 65.56 | 94.48 | 88.26 | 97.13 | 90.91 | 97.12 | 90.90 | 96.55 | 90.33 | Calculated Trolox® equivalents [1]: 1.97 Trolox® equivalents |
| Cc1c(C)c2c(c(C)c1O)CCC(C)(CCCC(C)CCCC(C)CCCC(C)C)O2 (stereo not drawn) [Vitamin E, α-tocopherol] |  |  |  |  |  |  |  |  |  |  |  |  |  |  |  |  |  |  |  |  | delay in reaching the end points of institutionalization, loss of major activities of daily living, or death [2]: small but significant delay; loss of cognitive performance [2]: did not delay |
| COc1ccc2[nH]cc(CCNC(C)=O)c2c1 [Melatonin, N-[2-(5-Methoxyindol-3-yl)ethyl]acetamide] |  |  | 14.74 | 8.09 | 20.89 | 14.24 | 28.74 | 22.09 | 42.59 | 35.94 | 66.10 | 59.45 | 88.65 | 82.00 | 93.12 | 86.47 | 94.75 | 88.10 | 91.48 | 84.82 |  |
| COc1ccc2[nH]cc(CCNC(=O)CCCCCN3C(=O)CC(SC[C@H](N)C(=O)O)C3=O)c2c1 (stereo partly drawn) [Example 1, (2R)-2-amino-3-((1-(6-((2-(5-methoxy-1H-indol-3-yl)ethyl)amino)-6-oxohexyl)-2,5-dioxopyrrolidin-3-yl)thio)propanoic acid] | 75% | about 2 fold | 14.99 | 8.56 | 20.01 | 13.58 | 29.51 | 23.08 | 46.55 | 40.12 | 74.68 | 68.25 | 93.56 | 87.13 | 93.03 | 86.60 | 88.39 | 81.96 | 82.12 | 75.69 | Calculated Trolox® equivalents [1]: 2.02 Trolox® equivalents |
| Cc1c(C)c2c(c(C)c1O)CCC(C)(C(=O)O)O2 (stereo not shown) [Trolox, 6-hydroxy-2,5,7,8-tetramethylchroman-2-carboxylic acid] |  |  | 11.95 and 13.53 and 11.49 | 5.30 and 7.10 and 5.27 | 14.90 and 15.01 and 14.62 | 8.24 and 8.58 and 8.39 | 20.00 and 19.69 and 19.52 | 13.34 and 13.26 and 13.30 | 28.96 and 29.49 and 28.51 | 22.31 and 23.06 and 22.29 | 44.91 and 44.55 and 43.41 | 38.25 and 38.12 and 37.18 | 77.61 and 74.88 and 73.04 | 70.96 and 68.45 and 66.81 | 96.34 and 100.28 and 98.61 | 89.68 and 93.85 and 92.39 | 98.05 and 97.48 and 100.67 | 91.40 and 91.05 and 94.45 | 95.82 and 99.05 and 97.58 | 89.17 and 92.62 and 91.35 | protection of fluorescein against oxidation ([1]; 6.25 μM, lowest concentration tested, versus buffer only control): only slight protection; duration of virtually full protection of fluorescein against oxidation ([1]; 100 μM, highest concentration tested): approximately 20 minutes |
| CN(C)Cc1ccc2c(Cl)cc(Cl)c(O)c2n1 [PBT2] |  |  |  |  |  |  |  |  |  |  |  |  |  |  |  |  |  |  |  |  | tolerability (patients with AD; patients with AD): well-tolerated; cerebrospinal fluid (CSF) levels of amyloid-beta42 (patients with AD; within 12 weeks of treatment): significantly lowered; executive function on a Neuro-psychological Test Battery (NTB) (patients with AD; within 12 weeks of treatment): significantly improved |
